Test results: PMC6334005, “Ginsenosides Act As Positive Modulators of P2X4 Receptors” (Molecular Pharmacology, 2019)

Columns and labels:
[1] = molecular target: T1, hP2X4 (Homo sapiens, UniProt Q99571); experiment: cell-based; parameters: gene P2RX4
T1 sequence (Q99571 1-388): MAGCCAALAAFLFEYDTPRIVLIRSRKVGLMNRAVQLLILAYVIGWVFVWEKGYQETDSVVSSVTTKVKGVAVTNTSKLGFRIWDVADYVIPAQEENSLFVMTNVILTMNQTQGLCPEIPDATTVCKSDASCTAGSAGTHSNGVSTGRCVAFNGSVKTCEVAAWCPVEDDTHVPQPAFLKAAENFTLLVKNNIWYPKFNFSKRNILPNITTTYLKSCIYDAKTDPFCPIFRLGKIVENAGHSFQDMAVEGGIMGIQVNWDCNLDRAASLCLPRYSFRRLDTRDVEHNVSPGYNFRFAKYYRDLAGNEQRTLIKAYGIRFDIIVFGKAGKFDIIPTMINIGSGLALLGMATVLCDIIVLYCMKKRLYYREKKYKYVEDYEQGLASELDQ

[2] = molecular target: T1, hP2X4; experiment: YOPRO-1 dye uptake, potentiation of ATP response; format: cell-based; parameters: gene P2RX4; full-length, C-terminal Glu-Glu tag, pcDNA3, stably expressed in HEK-293 cells; homotrimer

EC50 [1] [nM] | EC50 [2] [µM] | SMILES
1920 |  | Nc1ncnc2c1ncn2[C@@H]1O[C@H](COP(=O)(O)OP(=O)(O)OP(=O)(O)O)[C@@H](O)[C@H]1O [ATP]
 | 10.5 | CC(C)=CCC[C@](C)(O[C@@H]1O[C@H](CO[C@@H]2O[C@H](CO)[C@@H](O)[C@H](O)[C@H]2O)[C@@H](O)[C@H](O)[C@H]1O)[C@H]1CC[C@]2(C)[C@@H]1[C@H](O)C[C@@H]1[C@@]3(C)CC[C@H](O[C@@H]4O[C@H](CO)[C@@H](O)[C@H](O)[C@H]4O[C@@H]4O[C@H](CO)[C@@H](O)[C@H](O)[C@H]4O)C(C)(C)[C@@H]3CC[C@]12C [Rb1]
 | 7.5 | CC(C)=CCC[C@](C)(O[C@@H]1O[C@H](CO)[C@@H](O)[C@H](O)[C@H]1O)[C@H]1CC[C@]2(C)[C@@H]1[C@H](O)C[C@@H]1[C@@]3(C)CC[C@H](O[C@@H]4O[C@H](CO)[C@@H](O)[C@H](O)[C@H]4O[C@@H]4O[C@H](CO)[C@@H](O)[C@H](O)[C@H]4O)C(C)(C)[C@@H]3CC[C@]12C [Rd]

SMILES | EC50 [1] [nM] | EC50 [2] [µM]
CC(C)=CCC[C@](C)(O[C@@H]1O[C@H](CO)[C@@H](O)[C@H](O)[C@H]1O)[C@H]1CC[C@]2(C)[C@@H]1[C@H](O)C[C@@H]1[C@@]3(C)CC[C@H](O)C(C)(C)[C@@H]3CC[C@]12C [CK] |  | 8.5
